Test results reported in patent US20220289816A1, “IMMUNOTHERAPY WITH B*07 RESTRICTED PEPTIDES AND COMBINATION OF PEPTIDES AGAINST CANCERS AND RELATED METHODS” (Immatics Biotechnologies GmbH, priority 2018, published 2022).

Columns and labels:
[1] = system: CD8+ T cells; test: In vitro immunogenicity: in vitro T-cell priming assay with aAPCs loaded with peptide/MHC complexes and anti-CD28 antibody, pMHC multimer readout; format: cell-based, human; settings: pMHC multimer readout after priming of CD8+ T cells
From the text: In order to obtain information regarding the immunogenicity of the TUMAPs of the present invention, the inventors performed investigations using an in vitro T-cell priming assay based on repeated stimulations of CD8+ T cells with artificial antigen presenting cells (aAPCs) loaded with peptide/MHC complexes and anti-CD28 antibody.
In order to perform in vitro stimulations by artificial antigen presenting cells loaded with peptide-MHC complex (pMHC) and anti-CD28 antibody, the inventors first isolated CD8+ T cells from fresh HLA-B*07 leukapheresis products via positive selection using CD8 microbeads (Miltenyi Biotec, Bergisch-Gladbach, Germany) of healthy donors obtained from the University clinics Mannheim, Germany, after informed consent.
PBMCs and isolated CD8+ lymphocytes were incubated in T-cell medium (TCM) until use consisting of RPMI-Glutamax (Invitrogen, Karlsruhe, Germany) supplemented with 10% heat inactivated human AB serum (PAN-Biotech, Aidenbach, Germany), 100 U/ml Penicillin/100 μg/ml Streptomycin (Cambrex, Cologne, Germany), 1 mM sodium pyruvate (CC Pro, Oberdorla, Germany), 20 μg/ml Gentamycin (Cambrex). 2.5 ng/ml IL-7 (PromoCell, Heidelberg, Germany) and 10 U/ml IL-2 (Novartis Pharma, Nürnberg, Germany) were also added to the TCM at this step.
Generation of pMHC/anti-CD28 coated beads, T-cell stimulations and readout was performed in a highly defined in vitro system using four different pMHC molecules per stimulation condition and 8 different pMHC molecules per readout condition.
The purified co-stimulatory mouse IgG2a anti human CD28 Ab 9.3 (Jung et al., 1987) was chemically biotinylated using Sulfo-N-hydroxysuccinimidobiotin as recommended by the manufacturer (Perbio, Bonn, Germany). Beads used were 5.6 μm diameter streptavidin coated polystyrene particles (Bangs Laboratories, Illinois, USA).
800.000 beads/200 μl were coated in 96-well plates in the presence of 4×12.5 ng different biotin-pMHC, washed and 600 ng biotin anti-CD28 were added subsequently in a volume of 200 μl. Stimulations were initiated in 96-well plates by co-incubating 1×10^6 CD8+ T cells with 2×10^5 washed coated beads in 200 μl TCM supplemented with 5 ng/ml IL-12 (PromoCell) for 3 days at 37° C. Half of the medium was then exchanged by fresh TCM supplemented with 80 U/ml IL-2 and incubating was continued for four days at 37° C. This stimulation cycle was performed for a total of three times. For the pMHC multimer readout using 8 different pMHC molecules per condition, a two-dimensional combinatorial coding approach was used as previously described (Andersen et al., 2012) with minor modifications encompassing coupling to five different fluorochromes. Finally, multimeric analyses were performed by staining the cells with Live/dead near IR dye (Invitrogen, Karlsruhe, Germany), CD8-FITC antibody clone SK1 (BD, Heidelberg, Germany) and fluorescent pMHC multimers. For analysis, a BD LSRII SORP cytometer equipped with appropriate lasers and filters was used. Peptide specific cells were calculated as percentage of total CD8+ cells. Evaluation of multimeric analysis was done using the FlowJo software (Tree Star, Oregon, USA). In vitro priming of specific multimer+CD8+ lymphocytes was detected by comparing to negative control stimulations.

[2] = target: HLA-B*07 (Homo sapiens, UniProt P01889); test: MHC binding assay (UV-ligand exchange, ELISA of stabilized MHC complexes); settings: peptide exchange yield on HLA-B*07, UV-ligand exchange
Summary of the method: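 Peptide–MHC complexes were made by UV-ligand exchange, in which a UV-cleavable peptide is replaced by the test peptide. Exchange yield was measured by ELISA of stabilized complexes on streptavidin-coated plates, using HRP anti-β2m detection (1 h, 37 °C), TMB substrate and absorbance at 450 nm.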

| Peptide exchange [2] | Substance | Wells positive [%] ([1]; Table 10a) | Wells positive [%] ([1]; Table 10b) |
| --- | --- | --- | --- |
|  | 418 (RPMTPTQIGPSL; listed as Homo sapiens) [compound 418] | + (<20% = +) |  |
|  | 393 (APAAWLRSA; listed as Homo sapiens) [compound 393] | +++ (50%-69% = +++) |  |
| +++ (>50 = +++) | 4 (GPKKFIVKL; listed as Homo sapiens) [compound 4] |  | + (<20% = +) |
|  | 398 (SPASRSISL; listed as Homo sapiens) [compound 398] | + (<20% = +) |  |
|  | 419 (SPMWHVQQL; listed as Homo sapiens) [compound 419] | ++++ (>=70% = ++++) |  |
| +++ (>50 = +++) | 48 (RPRYSIGL; listed as Homo sapiens) [compound 48] |  | + (<20% = +) |
| ++++ (>75% = ++++) | 365 (RPKHFLQML; listed as Homo sapiens) [compound 365] |  | + (<20% = +) |
| ++++ (>75% = ++++) | 21 (APSRLLEL; listed as Homo sapiens) [compound 21] |  | + (<20% = +) |
| ++++ (>75% = ++++) | 366 (SPTLRQLDL; listed as Homo sapiens) [compound 366] |  | ++ (20%-49% = ++) |
| ++++ (>75% = ++++) | 68 (FPNEVSVVL; listed as Homo sapiens) [compound 68] |  | ++ (20%-49% = ++) |
| +++ (>50 = +++) | 23 (VPRPTSTVGL; listed as Homo sapiens) [compound 23] |  | ++ (20%-49% = ++) |
|  | 389 (APLPRPGAVL; listed as Homo sapiens) [compound 389] | ++ (20%-49% = ++) |  |
|  | 406 (LPDGSRVEL; listed as Homo sapiens) [compound 406] | ++++ (>=70% = ++++) |  |
| ++++ (>75% = ++++) | 361 (SPYGSDRLVQL; listed as Homo sapiens) [compound 361] |  | + (<20% = +) |
|  | 407 (FPRLVGPDF; listed as Homo sapiens) [compound 407] | +++ (50%-69% = +++) |  |
|  | 391 (APRPASSL; listed as Homo sapiens) [compound 391] | + (<20% = +) |  |
|  | 433 (IPEPSAQQL; listed as Homo sapiens) [compound 433] | + (<20% = +) |  |
| ++++ (>75% = ++++) | 26 (SPSFSSTLLSL; listed as Homo sapiens) [compound 26] |  | + (<20% = +) |
| ++++ (>75% = ++++) | 1 (RPRSLQCVSL; listed as Homo sapiens) [compound 1] |  | + (<20% = +) |
|  | 429 (RPRALRDLQL; listed as Homo sapiens) [compound 429] | ++ (20%-49% = ++) |  |
| ++++ (>75% = ++++) | 56 (LPALLRSGLTL; listed as Homo sapiens) [compound 56] |  | +++ (50%-69% = +++) |
|  | 437 (FPYPYAERL; listed as Homo sapiens) [compound 437] | +++ (50%-69% = +++) |  |
|  | 392 (GPQPWHAAL; listed as Homo sapiens) [compound 392] | ++ (20%-49% = ++) |  |
|  | 414 (KPSESIYSAL; listed as Homo sapiens) [compound 414] | ++ (20%-49% = ++) |  |
| +++ (>50 = +++) | 49 (APEKARAFL; listed as Homo sapiens) [compound 49] |  | + (<20% = +) |
|  | 388 (SPSVSQLSVL; listed as Homo sapiens) [compound 388] | ++++ (>=70% = ++++) |  |
| ++++ (>75% = ++++) | 5 (LPSLSHCSQL; listed as Homo sapiens) [compound 5] |  | ++ (20%-49% = ++) |

| Peptide exchange [2] | Substance | Wells positive [%] ([1]; Table 10a) | Wells positive [%] ([1]; Table 10b) |
| --- | --- | --- | --- |
|  | 440 (YPRTITPGM; listed as Homo sapiens) [compound 440] | + (<20% = +) |  |
| ++++ (>75% = ++++) | 24 (VPRPTSTVGLFL; listed as Homo sapiens) [compound 24] |  | + (<20% = +) |
|  | 408 (YPKDIYSSF; listed as Homo sapiens) [compound 408] | ++ (20%-49% = ++) |  |
|  | 445 (RPAATAVISL; listed as Homo sapiens) [compound 445] | + (<20% = +) |  |
|  | 396 (VPDVAQFVL; listed as Homo sapiens) [compound 396] | ++ (20%-49% = ++) |  |
|  | 411 (IPNWARQDL; listed as Homo sapiens) [compound 411] | ++++ (>=70% = ++++) |  |
| ++++ (>75% = ++++) | 64 (VPRPIFSQLYL; listed as Homo sapiens) [compound 64] |  | +++ (50%-69% = +++) |
| ++++ (>75% = ++++) | 3 (MPYVVLTAL; listed as Homo sapiens) [compound 3] |  | + (<20% = +) |
|  | 415 (LPSDSHFKITF; listed as Homo sapiens) [compound 415] | ++ (20%-49% = ++) |  |
| ++++ (>75% = ++++) | 364 (KPRTPFTTAQL; listed as Homo sapiens) [compound 364] |  | + (<20% = +) |
|  | 427 (VPSSRILQL; listed as Homo sapiens) [compound 427] | +++ (50%-69% = +++) |  |
| +++ (>50 = +++) | 45 (TRPWSGPYIL; listed as Homo sapiens) [compound 45] |  | + (<20% = +) |
|  | 399 (NPFYPEVEL; listed as Homo sapiens) [compound 399] | + (<20% = +) |  |
| ++++ (>75% = ++++) | 61 (LPRIPFSTF; listed as Homo sapiens) [compound 61] |  | ++ (20%-49% = ++) |
|  | 420 (SPRWLPVSL; listed as Homo sapiens) [compound 420] | ++++ (>=70% = ++++) |  |
|  | 410 (SPRSWIQVQI; listed as Homo sapiens) [compound 410] | + (<20% = +) |  |
| ++++ (>75% = ++++) | 53 (SPRIPFSTF; listed as Homo sapiens) [compound 53] |  | + (<20% = +) |
|  | 425 (YPRGNHWAVGHL; listed as Homo sapiens) [compound 425] | ++ (20%-49% = ++) |  |
| +++ (>50 = +++) | 33 (LPRGLSPARQL; listed as Homo sapiens) [compound 33] |  | ++ (20%-49% = ++) |
|  | 430 (RPRALRDLQLL; listed as Homo sapiens) [compound 430] | +++ (50%-69% = +++) |  |
| ++++ (>75% = ++++) | 9 (RPDSRLLEL; listed as Homo sapiens) [compound 9] |  | +++ (50%-69% = +++) |
|  | 423 (SPRVYWLGL; listed as Homo sapiens) [compound 423] | ++++ (>=70% = ++++) |  |
| ++++ (>75% = ++++) | 12 (LPNTGRIGQLL; listed as Homo sapiens) [compound 12] |  | ++ (20%-49% = ++) |
|  | 443 (VPDGVSKVL; listed as Homo sapiens) [compound 443] | +++ (50%-69% = +++) |  |
|  | 405 (LPFDGPGGIL; listed as Homo sapiens) [compound 405] | ++++ (>=70% = ++++) |  |
|  | 390 (SPRMSGLLSQT; listed as Homo sapiens) [compound 390] | +++ (50%-69% = +++) |  |
| ++ (>20% = ++) | 173 (VIINNPISL; listed as Homo sapiens) [compound 173] |  |  |
